From paper PMC4370873, “The RNA Template Channel of the RNA-Dependent RNA Polymerase as a Target for Development of Antiviral Therapy of Multiple Genera within a Virus Family” (PLoS Pathogens, 2015)

Molecular target: T1, EMCV 3Dpol (Mengo virus, UniProt P12296)
T1 construct: mature 3Dpol cut from polyprotein (1834 to 2293, 460 residues); cleavable His6-thioredoxin tag (pETG20A) removed; expressed in E. coli Rosetta (DE3) pLysS
Assay: [3H]UTP incorporation on poly(rA)/dT15, filter binding
Format: biochemical

T1 sequence (P12296 1834-2293): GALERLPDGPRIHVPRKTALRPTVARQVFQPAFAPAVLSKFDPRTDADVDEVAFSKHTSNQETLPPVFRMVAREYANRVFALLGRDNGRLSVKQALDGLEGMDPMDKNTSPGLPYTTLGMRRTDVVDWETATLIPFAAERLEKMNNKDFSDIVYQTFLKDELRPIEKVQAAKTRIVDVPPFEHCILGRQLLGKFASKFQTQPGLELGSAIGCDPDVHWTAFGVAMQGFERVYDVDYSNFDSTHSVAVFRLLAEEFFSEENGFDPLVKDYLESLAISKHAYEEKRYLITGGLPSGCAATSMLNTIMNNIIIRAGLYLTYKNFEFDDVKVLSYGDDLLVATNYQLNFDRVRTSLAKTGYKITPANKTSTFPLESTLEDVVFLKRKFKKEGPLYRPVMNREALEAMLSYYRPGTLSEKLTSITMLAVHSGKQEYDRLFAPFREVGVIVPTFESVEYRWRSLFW

Compound: N#Cc1cc([N+](=O)[O-])ccc1Oc1ccc(Cl)cc1Oc1ccc([N+](=O)[O-])cc1C#N [GPC-N114, 2,2'-[(4-chloro-1,2-phenylene)bis(oxy)]bis(5-nitro-benzonitrile)]
- Ki: 1.3 µM
